According to US8853258B2, “C-linked hydroxamic acid derivatives useful as antibacterial agents” (Pfizer Inc., priority 2009, dated 2014):
Converted amounts (≈) assume the structure as drawn. Like-named read-outs stand apart in the source and are kept apart here.

Experiments:
[1] = system: Acinetobacter baumanii/haemolyticus: Multidrug-resistant clinical isolate (AB-3167); assay: MIC determination (CLSI), AB-3167; type: cell-based; settings: for MIC: Acinetobacter baumannii
Outline: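 Multidrug-resistant clinical isolate AB-3167 (A. baumannii/haemolyticus) tested for minimum inhibitory concentration following CLSI dilution susceptibility standards M7-A7 and M100-S18.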

[2] = system: Klebsiella pneumoniae: Ciprofloxacin-resistant isolate, ESBL, clinical isolate (KP-3700); assay: MIC determination (CLSI), KP-3700; type: cell-based
Outline: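 MIC measured by broth dilution according to CLSI M7-A7 and M100-S18 standards. Test organism was a ciprofloxacin-resistant, ESBL-expressing clinical isolate.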

[3] = biological target: Pseudomonas aeruginosa LpxC enzyme (Pseudomonas aeruginosa (strain ATCC 15692 / DSM 22644 / CIP 104116 / JCM 14847 / LMG 12228 / 1C / PRS 101 / PAO1), UniProt P47205); assay: IC50 Assay, LpxC Enzyme from P. aeruginosa (PA LpxC Enzyme IC50); type: biochemical
Protocol: In order to assess the compounds biological activity, selected in-vitro assays were conducted on selected compounds. One of the assays measured the compounds ability to disrupt the synthesis of lipopolysaccharide, LPS, which is a component of the outer membrane of Gram-negative bacteria. Disruption of this synthesis is lethal to the bacteria. The assay determined the compound's ability to inhibit LpxC, which is the first enzyme in the biosynthetic pathway for LPS (measured as IC50). Additionally, MICs (minimal inhibitory concentrations) were determined for several bacteria. The specific protocols are described below:
A) IC50 Assay, LpxC Enzyme from P. aeruginosa (Labled as PA LpxC Enzyme IC50
At the end of 1 hour, 5 ul of 1N HCl was added to stop the enzyme reaction; the plates were centrifuged, and then processed with the BioTrove Rapidfire HTMS Mass Spectrometry System. A no-enzyme control was used in calculating the IC50 values from the percent conversion values.

[4] = system: Escherichia coli EC-1: VOGEL, mouse virulent; assay: MIC determination (CLSI), EC-1; type: cell-based; settings: for MIC: Escherichia coli
Outline: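 E. coli Vogel, a mouse-virulent strain (EC-1), was tested. MICs were set by dilution susceptibility testing per CLSI standards M7-A7/M100-S18.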

[5] = system: Pseudomonas aeruginosa UI-18: Wild-type (PA-7); assay: MIC determination (CLSI), PA-7; type: cell-based; settings: for MIC: Pseudomonas aeruginosa
Outline: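 MIC by dilution method per CLSI M7-A7 and M100-S18 guidelines. Strain: wild-type Pseudomonas aeruginosa UI-18.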

[6] = Table 3, read-out: PA LpxC enzyeme IC^50
[7] = Acinetobacter baumanii/haemolyticus multidrug-resistant clinical isolate AB-3167
[8] = P. aeruginosa LpxC enzyme, read-out: PA LpxC enzyeme IC50
[9] = Escherichia coli EC-1 VOGEL, mouse virulent
[10] = Pseudomonas aeruginosa UI-18 wild-type PA-7
[11] = Acinetobacter baumanii/haemolyticus AB-3167
[12] = Pseudomonas aeruginosa UI-18 (PA-7)
[13] = Table 1, read-out: PA LpxC enzyeme IC50

Row | SMILES | MIC ([1]; Table 3, read-out: AB-3167 MIC) [µg/mL] | KP-3700 MIC [2] | IC50 [3, 6] [nM] | MIC ([4]; read-out: EC-1 MIC) [µg/mL] | MIC ([5]; Table 3, read-out: PA-7 MIC) [µg/mL] | IC50 [3, 8] [nM] | other results
1 | Cc1ccc(OCc2noc(COc3ccc(CCC(C)(C(=O)NO)S(C)(=O)=O)cc3)n2)cc1 (stereo not drawn) [Example 286, N-hydroxy-2-methyl-4-[4-({3-[(4-methylphenoxy)methyl]-1,2,4-oxadiazol-5-yl}methoxy)phenyl]-2-(methylsulfonyl)butanamide] | ≥ 64 | ≧64 mg/L | 11.9 | 32 (≈ 65.4 µM) | ≥ 64 | – | –
2 | CC(CCc1ccc(OCc2nc(C3CCC3)no2)cc1)(C(=O)NO)S(C)(=O)=O (stereo not drawn) [Example 300, 4-{4-[(3-cyclobutyl-1,2,4-oxadiazol-5-yl)methoxy]phenyl}-N-hydroxy-2-methyl-2-(methylsulfonyl)butanamide] | ≥ 64 | 32 µg/mL | 7.56 | 16 (≈ 37.8 µM) | 32 (≈ 75.6 µM) | – | –
3 | Cc1cc(-c2ccc(CCC(C)(C(=O)NO)S(C)(=O)=O)cc2)ccc1C#N (stereo not drawn) [Example 109] | – | 2 µg/mL | – | – | – | 0.144 | AB-3167 MIC [1, 7]: 32 µg/mL; EC-1 MIC [4, 9]: 0.5 µg/mL; PA-7 MIC [5, 10]: 2 µg/mL
4 | C[C@@](CCc1ccc(-c2ccc(OCC(=O)N3CC(O)C3)cc2)cc1)(C(=O)NO)S(C)(=O)=O [Example 223] | – | 32 µg/mL | – | – | – | 0.507 | AB-3167 MIC [1, 11]: ≧64 mg/L; EC-1 MIC ([4]; Escherichia coli EC-1): 16 µg/mL; PA-7 MIC [5, 12]: 8 µg/mL
5 | C[C@@](CCc1ccc(-c2ccc(OP(=O)(O)O)cc2)cc1)(C(=O)NO)S(C)(=O)=O [Example 6, 4′-[(3R)-4-(Hydroxyamino)-3-methyl-3-(methylsulfonyl)-4-oxobutyl]biphenyl-4-yl dihydrogen phosphate] | – | – | – | – | – | – | MIC ([1]; read-out: AB-3167 (MIC)): ≥ 64 µg/mL; KP-3700 MIC ([2]; Table 1, MIC): ≧64 mg/L; IC50 [3, 13]: 88.1 nM; MIC ([4]; read-out: EC-1: (MIC)): ≥ 64 µg/mL; MIC ([5]; read-out: PA-7 (MIC)): ≥ 64 µg/mL
6 | CC(CCc1ccc(OCc2ccc(F)cc2C#N)cc1)(C(=O)NO)S(C)(=O)=O (stereo not drawn) [Example 284, 4-{4-[(2-cyano-4-fluorobenzyl)oxy]phenyl}-N-hydroxy-2-methyl-2-(methylsulfonyl)butanamide] | ≥ 64 | ≧64 mg/L | 5.36 | 32 (≈ 76.1 µM) | ≥ 64 | – | –
7 | CC(CCc1ccc(OCc2cccc3cccnc23)cc1)(C(=O)NO)S(C)(=O)=O (stereo not drawn) [Example 296, N-hydroxy-2-methyl-2-(methylsulfonyl)-4-[4-(quinolin-8-ylmethoxy)phenyl]butanamide] | 32 (≈ 74.7 µM) | 16 µg/mL | 15.8 | 8 (≈ 18.7 µM) | ≥ 64 | – | –
8 | Cc1ccc(Cc2noc(COc3ccc(CCC(C)(C(=O)NO)S(C)(=O)=O)cc3)n2)cc1 (stereo not drawn) [Example 283, N-hydroxy-2-methyl-4-(4-{[3-(4-methylbenzyl)-1,2,4-oxadiazol-5-yl]methoxy}phenyl)-2-(methylsulfonyl)butanamide] | ≥ 64 | ≧64 mg/L | 6.32 | 16 (≈ 33.8 µM) | ≥ 64 | – | –
9 | COc1cc(CCC(C)(C(=O)NO)S(C)(=O)=O)ccc1-c1ccccc1 (stereo not drawn) [Example 171] | – | 16 µg/mL | – | – | – | 14.6 | AB-3167 MIC [1, 7]: ≧64 mg/L; EC-1 MIC [4, 9]: 4 µg/mL; PA-7 MIC [5, 10]: 32 µg/mL
10 | CC(=O)Nc1ccc(-c2ccc(CC[C@](C)(C(=O)NO)S(C)(=O)=O)cc2)cc1 [Example 205] | – | 32 µg/mL | – | – | – | 1.74 | AB-3167 MIC [1, 11]: ≧64 mg/L; EC-1 MIC ([4]; Escherichia coli EC-1): 16 µg/mL; PA-7 MIC [5, 12]: 4 µg/mL
11 | CC(CCc1ccc(OCc2ccc(F)cc2F)cc1)(C(=O)NO)S(C)(=O)=O (stereo not drawn) [Example 294, 4-{4-[(2,4-difluorobenzyl)oxy]phenyl}-N-hydroxy-2-methyl-2-(methylsulfonyl)butanamide] | 32 (≈ 77.4 µM) | 16 µg/mL | 0.992 | 4 (≈ 9.67 µM) | 4 (≈ 9.67 µM) | – | –
12 | CC(CCc1ccc(-c2ccc(OCCCO)cc2)cc1)(C(=O)NO)S(C)(=O)=O (stereo not drawn) [Example 115] | – | 2 µg/mL | – | – | – | 0.388 | AB-3167 MIC [1, 7]: ≧64 mg/L; EC-1 MIC [4, 9]: 0.5 µg/mL; PA-7 MIC [5, 10]: 2 µg/mL
13 | C[C@@](CCc1ccc(-c2ccc3c(c2)OCO3)cc1)(C(=O)NO)S(C)(=O)=O [Example 215] | – | 2 µg/mL | – | – | – | 0.0842 | AB-3167 MIC [1, 11]: 16 µg/mL; EC-1 MIC ([4]; Escherichia coli EC-1): 0.5 µg/mL; PA-7 MIC [5, 12]: 0.5 µg/mL
14 | CC(CCc1ccc(OCc2ccc(S(C)(=O)=O)cc2)cc1)(C(=O)NO)S(C)(=O)=O (stereo not drawn) [Example 309, N-hydroxy-2-methyl-2-(methylsulfonyl)-4-(4-{[4-(methylsulfonyl)benzyl]oxy}phenyl)butanamide] | ≥ 64 | 16 µg/mL | 1.21 | 8 (≈ 17.6 µM) | 8 (≈ 17.6 µM) | – | –
15 | CC(CCc1ccc(-c2ccc(C#N)cc2F)cc1)(C(=O)NO)S(C)(=O)=O (stereo not drawn) [Example 128] | – | 8 µg/mL | – | – | – | 0.232 | AB-3167 MIC [1, 7]: ≧64 mg/L; EC-1 MIC [4, 9]: 0.5 µg/mL; PA-7 MIC [5, 10]: 0.5 µg/mL
16 | CC(CCc1ccc(-c2ccccc2Cl)cc1)(C(=O)NO)S(C)(=O)=O (stereo not drawn) [Example 81] | – | 8 µg/mL | – | – | – | 0.448 | AB-3167 MIC [1, 7]: 32 µg/mL; EC-1 MIC [4, 9]: 2 µg/mL; PA-7 MIC [5, 10]: 1 µg/mL
17 | C[C@@](CCc1ccc(-c2cnc3cc[nH]c3c2)cc1)(C(=O)NO)S(C)(=O)=O [Example 211] | – | ≧64 mg/L | – | – | – | 11.1 | AB-3167 MIC [1, 11]: ≧64 mg/L; EC-1 MIC ([4]; Escherichia coli EC-1): ≧64 mg/L; PA-7 MIC [5, 12]: 32 µg/mL
18 | CC(CCc1ccc(C2=CCCCCC2)cc1)(C(=O)NO)S(C)(=O)=O (stereo not drawn) [Example 13, 4-(4-Cyclohept-1-en-1-ylphenyl)-N-hydroxy-2-methyl-2-(methylsulfonyl)butanamide] | – | 4 µg/mL | – | – | – | – | MIC ([1]; Table 1, MIC, read-out: AB-3167 (MIC)): 0.5 µg/mL (≈ 1.37 µM); IC50 [3, 13]: 0.29 nM; MIC ([4]; read-out: EC-1: (MIC)): 2 µg/mL (≈ 5.47 µM); MIC ([5]; Table 1, MIC, read-out: PA-7 (MIC)): 1 µg/mL (≈ 2.74 µM)
19 | C[C@@](CCc1ccc(-c2ccc3c(c2)CNC3=O)cc1)(C(=O)NO)S(C)(=O)=O [Example 199] | – | 32 µg/mL | – | – | – | 0.266 | AB-3167 MIC [1, 7]: ≧64 mg/L; EC-1 MIC [4, 9]: 8 µg/mL; PA-7 MIC [5, 10]: 2 µg/mL
20 | CC(CCc1ccc(OCc2ccc(Cl)cc2F)cc1)(C(=O)NO)S(C)(=O)=O (stereo not drawn) [Example 307, 4-{4-[(4-chloro-2-fluorobenzyl)oxy]phenyl}-N-hydroxy-2-methyl-2-(methylsulfonyl)butanamide] | 16 (≈ 37.2 µM) | 8 µg/mL | 0.393 | 2 (≈ 4.65 µM) | 4 (≈ 9.3 µM) | – | –
21 | CC1(O)CCN(C(=O)COc2ccc(-c3ccc(CC[C@](C)(C(=O)NO)S(C)(=O)=O)cc3)cc2)CC1 [Example 222] | – | ≧64 mg/L | – | – | – | 0.841 | AB-3167 MIC [1, 11]: ≧64 mg/L; EC-1 MIC ([4]; Escherichia coli EC-1): 16 µg/mL; PA-7 MIC [5, 12]: 32 µg/mL
